Assay results from patent US10844038B2, “1,2-dithiolane compounds useful in neuroprotection, autoimmune and cancer diseases and conditions” (SABILA BIOSCIENCES LLC, priority 2016, dated 2020).

Tests used:
BTK = BTK (Homo sapiens (Human), UniProt Q06187); assay: KINOMEscan competition binding assay (Kd); conditions: read-out: Kd Values Against Representative TEC Family Kinases: BTK
Method: (§1) KINOMEscan™ is based on a competition binding assay that quantitatively measures the ability of a test compound of the invention to compete with an immobilized, active-site directed ligand. The Kinase assay is performed by combining three components: DNA-tagged kinase; immobilized ligand; and a test compound. The ability of the test compound to compete with the immobilized ligand is measured via quantitative PCR of the DNA tag.
(§2) For most assays, kinase-tagged T7 phage strains were prepared in an E. coli host derived from the BL21 strain. E. coli were grown to log-phase and infected with T7 phage and incubated with shaking at 32° C. until lysis. The lysates were centrifuged and filtered to remove cell debris. The remaining kinases were produced in HEK-293 cells and subsequently tagged with DNA for qPCR detection. Streptavidin-coated magnetic beads were treated with biotinylated small molecule ligands for 30 minutes at room temperature to generate affinity resins for kinase assays. The liganded beads were blocked with excess biotin and washed with blocking buffer (SeaBlock (Pierce), 1% BSA, 0.05% Tween 20, 1 mM DTT) to remove unbound ligand and to reduce nonspecific binding. […] All reactions were performed in polystyrene 96-well plates in a final volume of 0.135 ml. […] The kinase concentration in the eluates was measured by qPCR.

MEK5 = MEK5 (Homo sapiens (Human), UniProt Q13163); assay: KINOMEscan competition binding assay (Kd); conditions: Table 9, read-out: Kd Values Against Representative MEK5 Kinase: MEK5
MEK5, sequence (Q13163 whole entry): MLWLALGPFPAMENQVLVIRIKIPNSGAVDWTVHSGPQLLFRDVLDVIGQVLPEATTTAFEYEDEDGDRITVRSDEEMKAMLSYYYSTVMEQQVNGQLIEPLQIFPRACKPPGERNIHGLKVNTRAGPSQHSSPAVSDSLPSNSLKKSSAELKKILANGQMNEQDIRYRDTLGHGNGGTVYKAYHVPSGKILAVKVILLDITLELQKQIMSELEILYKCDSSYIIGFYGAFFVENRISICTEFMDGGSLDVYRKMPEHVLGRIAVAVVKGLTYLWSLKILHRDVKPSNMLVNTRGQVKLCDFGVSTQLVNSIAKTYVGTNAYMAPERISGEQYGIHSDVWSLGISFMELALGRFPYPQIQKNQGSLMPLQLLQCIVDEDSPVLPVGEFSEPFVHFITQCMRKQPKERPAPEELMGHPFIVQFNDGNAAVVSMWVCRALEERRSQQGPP
Method: as §1, §2

PI3K α = PI3K α (Homo sapiens (Human), UniProt P42336); assay: Radioisotope filter binding assay; type: biochemical; conditions: read-out: IC50 Activity Levels Against Various PI3K and mTor Kinases: PI3K α
PI3K α, sequence (P42336 whole entry): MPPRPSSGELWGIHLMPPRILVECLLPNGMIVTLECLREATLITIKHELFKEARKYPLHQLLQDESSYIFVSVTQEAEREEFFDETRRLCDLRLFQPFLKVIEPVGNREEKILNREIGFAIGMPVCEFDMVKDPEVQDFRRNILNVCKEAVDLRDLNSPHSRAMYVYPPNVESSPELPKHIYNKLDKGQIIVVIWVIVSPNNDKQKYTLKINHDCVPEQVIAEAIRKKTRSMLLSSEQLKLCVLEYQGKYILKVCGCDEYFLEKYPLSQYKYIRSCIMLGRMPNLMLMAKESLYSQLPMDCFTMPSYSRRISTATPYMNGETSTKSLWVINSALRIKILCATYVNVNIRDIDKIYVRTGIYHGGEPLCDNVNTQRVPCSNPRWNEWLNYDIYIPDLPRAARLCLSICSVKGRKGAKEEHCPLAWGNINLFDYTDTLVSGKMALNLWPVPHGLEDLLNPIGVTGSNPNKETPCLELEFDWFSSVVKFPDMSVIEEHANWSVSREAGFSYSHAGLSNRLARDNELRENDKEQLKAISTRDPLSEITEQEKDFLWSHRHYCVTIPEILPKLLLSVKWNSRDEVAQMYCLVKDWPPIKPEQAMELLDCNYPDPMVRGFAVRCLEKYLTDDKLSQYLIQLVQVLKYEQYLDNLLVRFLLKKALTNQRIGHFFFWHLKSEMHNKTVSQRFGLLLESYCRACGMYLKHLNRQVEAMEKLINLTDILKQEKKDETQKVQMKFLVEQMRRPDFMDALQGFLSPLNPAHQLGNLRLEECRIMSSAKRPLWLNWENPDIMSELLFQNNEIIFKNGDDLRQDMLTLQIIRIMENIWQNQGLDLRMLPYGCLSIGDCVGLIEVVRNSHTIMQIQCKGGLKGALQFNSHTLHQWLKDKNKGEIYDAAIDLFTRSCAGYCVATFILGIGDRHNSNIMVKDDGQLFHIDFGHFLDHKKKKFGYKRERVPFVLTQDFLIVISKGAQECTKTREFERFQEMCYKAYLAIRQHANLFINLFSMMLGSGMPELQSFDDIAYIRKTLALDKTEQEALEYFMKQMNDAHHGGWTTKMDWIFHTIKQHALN
PI3K α, sequence (P27986 whole entry partner): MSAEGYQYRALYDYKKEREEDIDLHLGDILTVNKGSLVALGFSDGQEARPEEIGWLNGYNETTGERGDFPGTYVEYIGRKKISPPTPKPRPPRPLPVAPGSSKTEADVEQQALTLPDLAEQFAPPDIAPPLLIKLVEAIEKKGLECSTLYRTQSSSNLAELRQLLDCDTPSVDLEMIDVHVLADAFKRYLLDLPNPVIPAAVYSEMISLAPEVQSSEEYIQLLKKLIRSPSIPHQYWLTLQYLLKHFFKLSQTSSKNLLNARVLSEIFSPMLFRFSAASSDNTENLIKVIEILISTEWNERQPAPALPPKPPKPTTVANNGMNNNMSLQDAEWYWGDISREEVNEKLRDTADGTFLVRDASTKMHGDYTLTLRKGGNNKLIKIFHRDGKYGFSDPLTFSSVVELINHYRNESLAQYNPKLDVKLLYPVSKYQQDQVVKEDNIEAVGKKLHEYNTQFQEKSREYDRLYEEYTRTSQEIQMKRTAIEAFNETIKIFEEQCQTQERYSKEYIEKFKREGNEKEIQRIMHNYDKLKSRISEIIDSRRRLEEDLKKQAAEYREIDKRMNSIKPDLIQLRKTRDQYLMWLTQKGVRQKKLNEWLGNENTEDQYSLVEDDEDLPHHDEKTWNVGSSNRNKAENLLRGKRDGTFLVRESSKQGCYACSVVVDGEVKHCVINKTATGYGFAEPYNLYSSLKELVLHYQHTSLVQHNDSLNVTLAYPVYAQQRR
Method: (§3) 3. Radioisotope Filter Binding Assay:
(§4) In this assay format, it directly detects the true product without the use of modified substrates or coupling enzymes (Uitdehaag, J. C., et al. Br. J. Pharmacol. 2012, 166, 858-876; Hastie, C. J., et al. Nat. Protoc. 2006, 1, 968-971) according to equation 1. Substrate+[γ−^33P]−ATP→^33P-Substrate+ADP eq 1
(§5) The protocol calls for test compound of the invention to be incubated with kinase, substrate, cofactors, and radio-isotope-labeled ATP (^33P-gamma-ATP). The reaction mixtures are then spotted onto filter papers which bind the radioisotope labeled catalytic product. Unreacted phosphate is removed via washing. The reagents used include base reaction buffer; 20 mM Hepes (pH 7.5), 10 mM MgCl2, 1 mM EGTA, 0.02% Brij35, 0.02 mg/ml BSA, 0.1 mM Na3VO4, 2 mM DTT, 1% DMSO. The reaction procedure include the following steps: (1) prepare indicated substrate in freshly prepared base reaction buffer, (2) deliver any required cofactors to the substrate solution above, (3) deliver indicated kinase into the substrate solution and gently mix, (4) deliver compounds in DMSO into the kinase reaction mixture by Acoustic technology (Echo550; nanoliter range), incubate for 20 minutes at room temperature, (5) deliver ^33P-ATP (specific activity 10 μCi/μL) into the reaction mixture to initiate the reaction, (6) incubate kinase reaction for 2 hours at room temperature, (7) reactions are spotted onto P81 ion exchange paper, (8) detect kinase activity by filter-binding method.

PI3K β = PI3K β (Homo sapiens (Human), UniProt P42338); assay: Radioisotope filter binding assay; type: biochemical; conditions: read-out: IC50 Activity Levels Against Various PI3K and mTor Kinases: PI3K β
Method: as §3, §4, §5

PI3K γ = PI3K γ (Homo sapiens (Human), UniProt P48736); assay: Radioisotope filter binding assay; type: biochemical; conditions: read-out: IC50 Activity Levels Against Various PI3K and mTor Kinases: PI3K γ
Method: as §3, §4, §5

mTor/FRAP1 = mTor/FRAP1 (Homo sapiens (Human), UniProt P42345); assay: Radioisotope filter binding assay; type: biochemical; conditions: read-out: IC50 Activity Levels Against Various PI3K and mTor Kinases: mTor/FRAP1
Method: as §3, §4, §5

mTOR = mTOR (Homo sapiens (Human), UniProt P42345); assay: KINOMEscan competition binding assay (Kd); conditions: read-out: Kd Values Against mTOR Kinase: mTOR
Method: as §1, §2

FYN [1] = molecular target: T1, FYN (Homo sapiens (Human), UniProt P06241); assay: Radioisotope filter binding assay; type: biochemical; conditions: read-out: IC50 Activity Levels Against SRC Family Kinases: FYN
T1 sequence (P06241 whole entry): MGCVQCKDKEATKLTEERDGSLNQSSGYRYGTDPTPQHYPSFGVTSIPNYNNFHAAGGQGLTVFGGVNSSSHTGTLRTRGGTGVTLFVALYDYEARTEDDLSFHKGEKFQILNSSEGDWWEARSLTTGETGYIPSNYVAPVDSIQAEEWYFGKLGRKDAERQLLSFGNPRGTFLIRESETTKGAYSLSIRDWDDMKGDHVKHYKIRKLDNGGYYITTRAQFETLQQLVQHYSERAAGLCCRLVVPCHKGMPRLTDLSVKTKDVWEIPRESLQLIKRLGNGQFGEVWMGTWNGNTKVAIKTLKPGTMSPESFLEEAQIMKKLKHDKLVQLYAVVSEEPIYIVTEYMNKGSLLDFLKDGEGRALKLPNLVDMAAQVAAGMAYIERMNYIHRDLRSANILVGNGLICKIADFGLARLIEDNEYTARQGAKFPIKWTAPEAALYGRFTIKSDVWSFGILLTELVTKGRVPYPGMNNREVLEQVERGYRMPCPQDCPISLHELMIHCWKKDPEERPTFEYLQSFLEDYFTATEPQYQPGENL
Method: as §3, §4, §5

CSK = CSK (Homo sapiens (Human), UniProt P41240); assay: Rabbit reticulocyte lysate assay (KinaseSeeker competition binding); conditions: read-out: % Inhibition Against SRC Family Kinases: CSK
CSK, sequence (P41240 whole entry): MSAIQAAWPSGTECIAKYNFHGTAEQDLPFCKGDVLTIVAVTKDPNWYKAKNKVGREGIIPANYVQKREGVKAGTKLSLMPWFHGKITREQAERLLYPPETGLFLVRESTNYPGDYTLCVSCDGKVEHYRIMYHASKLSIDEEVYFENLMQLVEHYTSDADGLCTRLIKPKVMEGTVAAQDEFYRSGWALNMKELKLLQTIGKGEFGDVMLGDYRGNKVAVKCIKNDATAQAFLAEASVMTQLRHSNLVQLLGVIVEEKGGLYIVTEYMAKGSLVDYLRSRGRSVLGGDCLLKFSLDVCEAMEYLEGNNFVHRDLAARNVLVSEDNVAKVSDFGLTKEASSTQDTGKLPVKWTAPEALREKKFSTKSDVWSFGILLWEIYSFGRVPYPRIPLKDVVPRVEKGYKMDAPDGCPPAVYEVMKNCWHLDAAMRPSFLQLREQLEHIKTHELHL
Method: (§6) 1. Rabbit Reticulocyte Lysate Assay Design:
(§7) KinaseSeeker is a homogeneous competition binding assay where the displacement of an active site dependent probe by an inhibitor is measured by a change in luminescence signal. Luminescence readout translates into a highly sensitive and robust assay with low background and minimal interference from test compounds.
(§8) 10 mM stock solutions of test compounds were serially diluted in DMSO to make assay stocks. Prior to initiating IC50 determinations, the test compounds were evaluated for false positive against split-luciferase.
(§9) Each test compound was screened in duplicate against target kinase at 7 different concentrations. For kinase assays, Cfluc-kinase was translated along with Fos-Nfluc using a cell-free system (rabbit reticulocyte lysate) at 30° C. for 90 min. 24 uL aliquot of this lysate containing either 1 uL of DMSO (for no-inhibitor control) or compound solution in DMSO was incubated for 30 minutes at room temperature followed by 1 hour in presence of a kinase specific probe. 80 uL of luciferin assay reagent was added to each solution and luminescence was immediately measured on a luminometer.
(§10) The % Inhibition and % Activity Remaining was calculated using the following equation: % Inhibition=[(ALUControl−ALUSample)/ALUControl]×100 % Activity Remaining=100−% Inhibition
(§11) The % Activity was plotted against compound concentration and the IC50 was determined for each compound using a 7-point curve (Jester, B. W.; et. al. J. Am. Chem. Soc. 2010, 132, 11727-11735. Jester, B. W., et. al. J. Med. Chem. 2012, 55, 1526-1537). Biological activity of representative compounds of the disclosure are described in Table 5.

FGR = FGR (Homo sapiens (Human), UniProt P09769); assay: as above; conditions: at 1 μM, read-out: % Inhibition Against SRC Family Kinases: FGR
FGR, sequence (P09769 whole entry): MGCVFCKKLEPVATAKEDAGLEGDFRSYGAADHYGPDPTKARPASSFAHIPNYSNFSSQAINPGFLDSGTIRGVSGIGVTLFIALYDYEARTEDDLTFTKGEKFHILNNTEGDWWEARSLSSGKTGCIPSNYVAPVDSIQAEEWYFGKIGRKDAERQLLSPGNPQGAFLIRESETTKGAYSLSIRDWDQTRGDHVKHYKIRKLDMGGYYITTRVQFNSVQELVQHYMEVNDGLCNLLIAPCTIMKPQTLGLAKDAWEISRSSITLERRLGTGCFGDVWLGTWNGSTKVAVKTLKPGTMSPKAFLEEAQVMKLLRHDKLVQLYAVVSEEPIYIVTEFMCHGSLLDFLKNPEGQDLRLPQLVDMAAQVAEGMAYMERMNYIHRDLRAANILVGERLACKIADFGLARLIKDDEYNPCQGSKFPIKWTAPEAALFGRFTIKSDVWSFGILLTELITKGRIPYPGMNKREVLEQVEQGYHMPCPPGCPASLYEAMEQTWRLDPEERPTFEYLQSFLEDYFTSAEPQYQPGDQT
Method: as §6, §7, §8, §9, §10, §11

FYN [2] = molecular target: T1, FYN; assay: as above; conditions: read-out: % Inhibition Against SRC Family Kinases: FYN
Method: as §6, §7, §8, §9, §10, §11

HCK = HCK (Homo sapiens (Human), UniProt P08631); assay: as above; conditions: at 1 μM, read-out: % Inhibition Against SRC Family Kinases: HCK
Method: as §6, §7, §8, §9, §10, §11

LYN = LYN (Homo sapiens (Human), UniProt P07948); assay: as above; conditions: read-out: % Inhibition Against SRC Family Kinases: LYN
LYN, sequence (P07948 whole entry): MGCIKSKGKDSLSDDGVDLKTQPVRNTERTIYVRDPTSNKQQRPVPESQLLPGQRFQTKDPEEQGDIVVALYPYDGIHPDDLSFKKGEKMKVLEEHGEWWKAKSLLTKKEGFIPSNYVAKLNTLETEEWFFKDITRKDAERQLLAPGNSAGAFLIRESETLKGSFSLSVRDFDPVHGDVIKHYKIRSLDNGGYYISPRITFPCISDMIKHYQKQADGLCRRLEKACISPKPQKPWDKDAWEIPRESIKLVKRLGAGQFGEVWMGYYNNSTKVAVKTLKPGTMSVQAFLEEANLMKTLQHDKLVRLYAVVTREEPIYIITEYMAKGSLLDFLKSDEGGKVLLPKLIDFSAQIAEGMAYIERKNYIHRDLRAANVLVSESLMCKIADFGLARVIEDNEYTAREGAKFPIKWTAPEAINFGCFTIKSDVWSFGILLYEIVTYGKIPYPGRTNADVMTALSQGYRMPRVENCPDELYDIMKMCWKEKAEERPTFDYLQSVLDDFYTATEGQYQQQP
Method: as §6, §7, §8, §9, §10, §11

SRC = SRC (Homo sapiens (Human), UniProt P12931); assay: as above; conditions: at 1 μM, read-out: % Inhibition Against SRC Family Kinases: SRC
Method: as §6, §7, §8, §9, §10, §11

YES1 = YES1 (Homo sapiens (Human), UniProt P07947); assay: as above; conditions: at 1 μM, read-out: % Inhibition Against SRC Family Kinases: YES1
Method: as §6, §7, §8, §9, §10, §11

[3] = molecular target: Bruton Tyrosine Kinase (BTK) (Homo sapiens (Human), UniProt Q06187); assay: as above; conditions: read-out: IC50 Activity Levels Against Bruton Tyrosine Kinase: BTK
Bruton Tyrosine Kinase (BTK), sequence (Q06187 whole entry): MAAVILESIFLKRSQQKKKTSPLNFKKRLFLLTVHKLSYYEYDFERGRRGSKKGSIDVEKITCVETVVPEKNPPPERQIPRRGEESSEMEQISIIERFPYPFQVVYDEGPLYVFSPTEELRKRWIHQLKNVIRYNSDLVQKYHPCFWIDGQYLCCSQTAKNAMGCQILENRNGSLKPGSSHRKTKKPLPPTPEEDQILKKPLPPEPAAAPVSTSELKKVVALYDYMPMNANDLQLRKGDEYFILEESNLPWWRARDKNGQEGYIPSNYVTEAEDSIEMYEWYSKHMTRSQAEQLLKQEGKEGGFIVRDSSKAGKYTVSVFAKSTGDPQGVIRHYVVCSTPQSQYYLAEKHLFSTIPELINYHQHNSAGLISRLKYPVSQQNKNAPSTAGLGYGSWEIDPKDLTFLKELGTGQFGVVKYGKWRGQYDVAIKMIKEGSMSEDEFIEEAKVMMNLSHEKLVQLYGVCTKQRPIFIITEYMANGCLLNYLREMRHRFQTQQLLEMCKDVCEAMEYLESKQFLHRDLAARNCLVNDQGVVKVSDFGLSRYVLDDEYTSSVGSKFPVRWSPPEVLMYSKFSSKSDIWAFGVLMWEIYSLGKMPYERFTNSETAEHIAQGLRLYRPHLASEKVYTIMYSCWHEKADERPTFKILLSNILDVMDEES
Method: as §6, §7, §8, §9, §10, §11

BRAF = BRAF (Homo sapiens (Human), UniProt P15056); assay: KINOMEscan competition binding assay (Kd); conditions: read-out: Kd Values Against MAPK Pathway Kinases: BRAF
Method: as §1, §2

BTK, sequence (Q06187 whole entry): as above

SMILES: Nc1ncnc2c1c(-c1ccc(Oc3ccccc3)cc1)nn2C[C@@H]1SSC[C@H]1OCc1ccccc1 (relative stereo) [Example 39, trans 1-((4-(Benzyloxy)-1,2-dithiolan-3-yl)methyl)-3-(4-phenoxyphenyl)-1H-pyrazolo[3,4-d]pyrimidin-4-amine]
- Kd (BTK): 1000 to 10000 nM
- Kd (MEK5): 5 to 99 nM

SMILES: Nc1ncnc2c1c(-c1ccccc1)nn2C[C@@H]1SSC[C@H]1O (relative stereo) [Example 28, trans 3-((4-Amino-3-phenyl-1H-pyrazolo[3,4-d]pyrimidin-1-yl)methyl)-1,2-dithiolan-4-ol]
- Kd (MEK5): 5 to 99 nM

SMILES: Nc1nc2cc(-c3nn(C[C@@H]4SSC[C@H]4OC(=O)c4ccccc4)c4ncnc(N)c34)ccc2o1 (relative stereo) [Example 55, trans 3-((4-Amino-3-(2-aminobenzo[d]oxazol-5-yl)-1H-pyrazolo[3,4-d]pyrimidin-1-yl)methyl)-1,2-dithiolan-4-yl benzoate]
- IC50 (PI3K α): 100 to 999 nM
- IC50 (PI3K β): 1000 to 10000 nM
- IC50 (PI3K γ): 1000 to 10000 nM
- IC50 (mTor/FRAP1): 5 to 99 nM

SMILES: CO[C@H]1CSS[C@H]1Cn1nc(-c2ccc(Oc3ccccc3)cc2)c2c(N)ncnc21 (relative stereo) [Example 38, cis 1-((4-Methoxy-1,2-dithiolan-3-yl)methyl)-3-(4-phenoxyphenyl)-1H-pyrazolo[3,4-d]pyrimidin-4-amine]
- Kd (BTK): 5 to 99 nM
- Kd (MEK5): < 5 nM

SMILES: CO[C@@H]1CSS[C@H]1Cn1nc(-c2ccc(Oc3ccccc3)cc2)c2c(N)ncnc21 (relative stereo) [Example 37, trans 1-((4-Methoxy-1,2-dithiolan-3-yl)methyl)-3-(4-phenoxyphenyl)-1H-pyrazolo[3,4-d]pyrimidin-4-amine]
- Kd (BTK): 5 to 99 nM
- Kd (MEK5): < 5 nM
- Kd (mTOR): 1000 to 10000 nM
- IC50 (FYN [1]): 5 to 99 nM

SMILES: Nc1ncnc2c1c(C#Cc1ccccc1)nn2C[C@@H]1SSC[C@H]1O (relative stereo) [Example 52, trans 3-(4-Amino-3-(phenylethynyl)-1H-pyrazolo[3,4-d]pyrimidin-1-yl)methyl-1,2-dithiolan-4-ol]
- IC50 (mTor/FRAP1): 1000 to 10000 nM

SMILES: Nc1ncnc2c1c(-c1ccc(Oc3ccccc3)cc1)nn2C[C@@H]1SSC[C@H]1O [Example 43 A., (3S,4R)-3-((4-Amino-3-(4-phenoxyphenyl)-1H-pyrazolo[3,4-d]pyrimidin-1-yl)methyl)-1,2-dithiolan-4-ol]
- inhibition at 1 µM (CSK): 50%
- inhibition at 1 µM (FGR): 84%
- inhibition at 1 µM (FYN [2]): 33%
- inhibition at 1 µM (HCK): 73%
- inhibition at 1 µM (LYN): 33%
- inhibition at 1 µM (SRC): 49%
- inhibition at 1 µM (YES1): 90%

SMILES: Nc1ncnc2c1c(-c1ccc(Cl)cc1)nn2C[C@@H]1SSC[C@H]1O (relative stereo) [Example 30, trans 3-((4-Amino-3-(4-chlorophenyl)-1H-pyrazolo[3,4-d]pyrimidin-1-yl)methyl)-1,2-dithiolan-4-ol]
- Kd (MEK5): < 5 nM

SMILES: Nc1ncnc2c1c(-c1ccc(Oc3ccccc3F)cc1)nn2CC1SSCC1OC(=O)c1ccccc1 (stereo not drawn) [Example 62, trans 3-((4-Amino-3-(4-(2-fluorophenoxyphenyl)-1H-pyrazolo[3,4-d]pyrimidin-1-yl)methyl)-1,2-dithiolan-4-yl benzoate]
- IC50 (FYN [1]): 5 to 99 nM

SMILES: Nc1ncnc2c1c(-c1ccc(Oc3ccccc3)cc1)nn2C[C@@H]1SSC[C@H]1O (relative stereo) [Example 42, trans 3-((4-Amino-3-(4-phenoxyphenyl)-1H-pyrazolo[3,4-d]pyrimidin-1-yl)methyl)-1,2-dithiolan-4-ol]
- IC50 [3]: 100 to 999 nM
- Kd (BRAF): 1000 to 10000 nM
- Kd (BTK): 5 to 99 nM

SMILES: Nc1ncnc2c1c(-c1ccc(Oc3ccccc3)cc1)nn2C[C@@H]1SSC[C@@H]1OCc1ccccc1 (relative stereo) [Example 40, cis 1-((4-(Benzyloxy)-1,2-dithiolan-3-yl)methyl)-3-(4-phenoxyphenyl)-1H-pyrazolo[3,4-d]pyrimidin-4-amine]
- Kd (BTK): 100 to 999 nM
- Kd (MEK5): 5 to 99 nM
- IC50 (FYN [1]): 1000 to 10000 nM

SMILES: Nc1ncnc2c1c(-c1ccc(Oc3ccccc3)cc1)nn2C[C@@H]1SSC[C@@H]1O (relative stereo) [Example 45, cis 3-((4-Amino-3-(4-phenoxyphenyl)-1H-pyrazolo[3,4-d]pyrimidin-1-yl)methyl)-1,2-dithiolan-4-ol]
- Kd (BTK): 5 to 99 nM

SMILES: Nc1ncnc2c1c(-c1ccc(Oc3ccccc3F)cc1)nn2CC1SSCC1O (stereo not drawn) [Example 63, trans 3-((4-Amino-3-(4-(2-fluorophenoxyphenyl)-1H-pyrazolo[3,4-d]pyrimidin-1-yl)methyl)-1,2-dithiolan-4-ol]
- IC50 (FYN [1]): 5 to 99 nM

SMILES: Nc1ncnc2c1c(C#Cc1ccccc1)nn2CC1SSCC1OC(=O)c1ccccc1 (stereo not drawn) [Example 51, trans 3-((4-Amino-3-(phenylethynyl)-1H-pyrazolo[3,4-d]pyrimidin-1-yl)methyl-1,2-dithiolan-4-yl benzoate]
- IC50 (mTor/FRAP1): 1000 to 10000 nM

SMILES: COc1ccc(-c2nn(CC3SSCC3O)c3ncnc(N)c23)cc1 (stereo not shown) [36 B.]
- Kd (MEK5): 5 to 99 nM
- Kd (mTOR): 100 to 999 nM
